{
  "source": "patent US8278316B2",
  "about": "“Aza pyridone analogs useful as melanin concentrating hormone receptor-1 antagonists” (Bristol-Myers Squibb Company, priority 2009, dated 2012)",
  "data": [
    {"target": "T1, human melanin concentrating hormone receptor (MCHR1) (Homo sapiens, UniProt Q99705, A5T/E4Q)", "T1 construct": "expressed in transfected cells; host or cells: HEK-293 (stably transfected), membranes", "T1 sequence (Q99705 whole entry E4Q/A5T)": "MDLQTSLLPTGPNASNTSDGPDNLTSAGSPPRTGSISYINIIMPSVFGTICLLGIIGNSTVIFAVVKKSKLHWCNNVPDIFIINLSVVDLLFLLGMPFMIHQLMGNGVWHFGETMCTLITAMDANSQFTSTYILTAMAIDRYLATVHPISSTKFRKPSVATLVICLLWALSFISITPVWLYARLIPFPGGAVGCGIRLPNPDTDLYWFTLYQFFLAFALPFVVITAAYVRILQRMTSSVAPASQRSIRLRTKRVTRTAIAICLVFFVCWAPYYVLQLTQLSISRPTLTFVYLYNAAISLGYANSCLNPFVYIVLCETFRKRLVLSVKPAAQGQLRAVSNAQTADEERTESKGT", "experiment": "Radioligand binding assay for assessment of MCHR1 activity", "settings": "membranes from HEK-293 cells expressing mutated (E4Q, AST) hMCHR1; competition with 0.06-0.1 nM [Phe13,[125I]Tyr19]-MCH, 90 min", "description": "Compounds of Formula I were initially characterized in an in vitro binding assay to determine their Ki or ability to antagonize binding of a peptide agonist to the human melanin concentrating hormone receptor (MCHR1).\nMembranes from stably transfected HEK-293 cells expressing a mutated (E4Q, AST) hMCHR1 receptor were prepared by dounce homogenization and differential centrifugation. Binding experiments were carried out with 0.5-1.0 ug of membrane protein incubated in a total of 0.2 ml in 25 mM HEPES (pH 7.4) with 10 mM MgCl2, 2 mM EGTA, and 0.1% BSA (Binding Buffer) for 90 min. For competition binding assays, reactions were carried out in the presence of with 0.06-0.1 nM [Phe^13, [^125I]Tyr^19]-MCH and increasing concentrations of unlabeled test molecules. Reactions were terminated by rapid vacuum filtration over 96 well-GFC Unifilter plates pre-coated with 0.075 ml binding buffer containing 1% BSA, and washed 3 times with 0.4 ml of Phospho-buffered Saline (pH 7.4) containing 0.01% TX-100. Filters were dried; 0.05 ml microscint 20 was added to each well and radioactivity was subsequently quantified by scintillation counting on a TOPCOUNT® microplate scintillation counter (Packard). Inhibitory constants were determined by nonlinear least squares analysis using a four parameter logistic equation.", "units": {"Ki": "nM"}, "values": [
      {"smiles": "COc1cc(-n2ccc(C#Cc3ccccc3)nc2=O)ccc1OCC(C)(C)O", "note": "[Example B1, 1-(4-(2-Hydroxy-2-methylpropoxy)-3-methoxyphenyl)-4-(phenylethynyl)pyrimidin-2(1H)-one]", "Ki": 39},
      {"smiles": "COc1cc(-n2cnc(OCc3ccc(Cl)cc3)cc2=O)ccc1OCC(C)(C)O", "note": "[Example H1, 6-(4-Chlorobenzyloxy)-3-(4-(2-hydroxy-2-methylpropoxy)-3-methoxyphenyl)pyrimidin-4(3H)-one]", "Ki": 35},
      {"smiles": "COc1cc(-n2ccc(OCc3ccc(Cl)c(Cl)c3)nc2=O)ccc1OCC(C)(C)O", "note": "[Example A13]", "Ki": 1150},
      {"smiles": "COc1cc(-n2ncc(C#Cc3ccccc3)cc2=O)ccc1OCC(O)C1CC1", "note": "(stereo not drawn) [Example D2]", "Ki": 37},
      {"smiles": "COc1cc(-n2cnc(SCc3ccc(Cl)cc3)cc2=O)ccc1OCC(C)(C)O", "note": "[Example H2]", "Ki": 7},
      {"smiles": "COc1cc(-n2cnc(SCc3ccc(Cl)cc3)cc2=O)ccc1OCC(O)C1CC1", "note": "(stereo not drawn) [Example H6]", "Ki": 11},
      {"smiles": "COc1cc(-n2ncc(CSc3ccc(Cl)cc3)cc2=O)ccc1OCC(C)(C)O", "note": "[Example E1, 5-((4-Chlorophenylthio)methyl)-2-(4-(2-hydroxy-2-methylpropoxy)-3-methoxyphenyl)pyridazin-3(2H)-one]", "Ki": 1060},
      {"smiles": "COc1cc(-n2cnc(CSc3ccc(F)cc3)cc2=O)ccc1OCC(C)(C)O", "note": "[Example G3]", "Ki": 378},
      {"smiles": "Cc1cc(-n2ccc(NCc3ccc(Cl)cc3)nc2=O)ccc1OCC(C)(C)O", "note": "[Example A17]", "Ki": 458},
      {"smiles": "COc1cc(-n2ccc(SCc3ccc(Cl)cc3)nc2=O)ccc1OCC(C)(C)O", "note": "[Example A1, 4-(4-Chlorobenzylthio)-1-(4-(2-hydroxy-2-methylpropoxy)-3-methoxyphenyl)pyrimidin-2(1H)-one]", "Ki": 41},
      {"smiles": "COc1cc(-n2ccc(COc3ccccc3F)nc2=O)ccc1OCC(C)(C)O", "note": "[Example C5]", "Ki": 2200},
      {"smiles": "COc1cc(-n2cnc(/C=C/c3ccc(Cl)cc3)cc2=O)ccc1OCC(C)(C)O", "note": "[Example J1, (E)-6-(4-Chlorostyryl)-3-(4-(2-hydroxy-2-methylpropoxy)-3-methoxyphenyl)pyrimidin-4(3H)-one]", "Ki": 23}
    ]}
  ]
}
